Patent publication US8591876B2, “Methods of decreasing sebum production in the skin” (priority 2010, dated 2013)

Experiments:
[1] = tested on: normal human keratinocytes (NHEK); assay: Cytotoxicity to normal human keratinocytes (NHEK), Cell Titer-Blue Cell Viability Assay; type: cell-based; settings: in reference to cells incubated with media alone
[2] = tested on: human sebocytes (SEB-1); assay: Cytotoxicity to human sebocytes (SEB-1), Cell Titer-Blue Cell Viability Assay; type: cell-based; settings: in reference to cells incubated with media alone

`N[C@@H](CCC(=O)N[C@@H](CSN=O)C(=O)NCC(=O)O)C(=O)O` [GSNO, S-nitrogluthione] was tested, and the “% NHEK Killed” value ([1]; 0.12 mg/ml, 24 hr) was 4%, the “% NHEK Killed” value ([1]; 0.12 mg/ml, 48 hr) was 5% and the “% NHEK Killed” value ([1]; 0.12 mg/ml, 72 hr) was 15%. For the same compound, the “% NHEK Killed” value ([1]; 0.6 mg/ml, 24 hr) was 8%, the “% NHEK Killed” value ([1]; 0.6 mg/ml, 48 hr) was −11% and the “% NHEK Killed” value ([1]; 0.6 mg/ml, 72 hr) was −3%. The “% NHEK Killed” value ([1]; 1.2 mg/ml, 24 hr) was 34%, the “% NHEK Killed” value ([1]; 1.2 mg/ml, 48 hr) was 53% and the “% NHEK Killed” value ([1]; 1.2 mg/ml, 72 hr) was 44%. For the same compound, the “% SEB-1 Killed” value ([2]; 0.12 mg/ml, 24 hr) was 6%, the “% SEB-1 Killed” value ([2]; 0.12 mg/ml, 48 hr) was 11% and the “% SEB-1 Killed” value ([2]; 0.12 mg/ml, 72 hr) was 19%. The “% SEB-1 Killed” value ([2]; 0.6 mg/ml, 24 hr) was 48%, the “% SEB-1 Killed” value ([2]; 0.6 mg/ml, 48 hr) was 68% and the “% SEB-1 Killed” value ([2]; 0.6 mg/ml, 72 hr) was 67%. The “% SEB-1 Killed” value ([2]; 1.2 mg/ml, 24 hr) was 85%, the “% SEB-1 Killed” value ([2]; 1.2 mg/ml, 48 hr) was 97% and the “% SEB-1 Killed” value ([2]; 1.2 mg/ml, 72 hr) was 98%.
